Key:
Test in all cases: FRET lipid mixing of SNARE liposomes
Format in all cases: biochemical
Details in all cases: 37°C; 10 µM polyphenol (as in Figure 2)
SNAP-23/Syn4/VAMP8 = biological target: T1, SNAP-23/Syn4/VAMP8 (Rattus norvegicus, UniProt O70377+Q08850+Q9WUF4)
T1 sequence (O70377 1-210): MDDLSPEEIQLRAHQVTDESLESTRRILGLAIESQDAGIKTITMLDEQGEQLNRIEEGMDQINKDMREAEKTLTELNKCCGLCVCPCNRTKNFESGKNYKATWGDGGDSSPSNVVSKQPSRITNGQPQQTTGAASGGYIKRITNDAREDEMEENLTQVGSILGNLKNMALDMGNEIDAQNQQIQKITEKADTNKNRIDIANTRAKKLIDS
T1 sequence (Q08850 1-298): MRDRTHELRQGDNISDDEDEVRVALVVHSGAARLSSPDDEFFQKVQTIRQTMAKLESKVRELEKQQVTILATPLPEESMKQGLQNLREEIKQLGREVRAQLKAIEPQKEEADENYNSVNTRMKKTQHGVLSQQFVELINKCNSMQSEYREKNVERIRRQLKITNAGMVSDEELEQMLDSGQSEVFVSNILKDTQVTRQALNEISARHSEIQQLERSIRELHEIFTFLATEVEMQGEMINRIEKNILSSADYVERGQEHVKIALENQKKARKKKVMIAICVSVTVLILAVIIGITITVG
T1 sequence (Q9WUF4 1-100): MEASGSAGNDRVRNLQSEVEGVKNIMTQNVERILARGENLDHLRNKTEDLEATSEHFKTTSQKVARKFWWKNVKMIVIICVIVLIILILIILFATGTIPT

SNAP-23/Syn4/VAMP2 [1] = biological target: T2, SNAP-23/Syn4/VAMP2 (Rattus norvegicus, UniProt O70377+P63045+Q08850)
SNAP-23/Syn4/VAMP2 [2] = biological target: T2, SNAP-23/Syn4/VAMP2; remark: listed apart in the source

T2 sequence (P63045 2-116, one chain of several): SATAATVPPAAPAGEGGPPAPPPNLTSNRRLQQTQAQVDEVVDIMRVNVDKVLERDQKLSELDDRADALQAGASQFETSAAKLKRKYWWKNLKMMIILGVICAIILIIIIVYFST

Compound | % inhibition (SNAP-23/Syn4/VAMP8) | % inhibition (SNAP-23/Syn4/VAMP2 [1]) | % inhibition (SNAP-23/Syn4/VAMP2 [2])
O=c1cc(-c2ccc(O)cc2)oc2cc(O)cc(O)c12 [AP, apigenin] | ~ 90% | ~ 40% | 
COc1cc2c(c(OC)c1OC)-c1c(cc3c(c1OC)OCO3)CC(C)C(C)C2 (centres unmarked) [GN, gomisin N] |  |  | these polyphenols robustly inhibited SNAP-23/Syn4/VAMP2- driven fusion
C[C@@H]1O[C@@H](OC[C@H]2O[C@@H](Oc3c(-c4ccc(O)c(O)c4)oc4cc(O)cc(O)c4c3=O)[C@H](O)[C@@H](O)[C@@H]2O)[C@H](O)[C@H](O)[C@H]1O [RT, rutin] |  |  | did not inhibit SNAP-23/Syn4/VAMP8- driven fusion, but did inhibit SNAP-23/Syn4/VAMP2-driven fusion
O=C(O)/C=C/c1ccccc1 [TC, trans-cinnamic acid] |  |  | these polyphenols robustly inhibited SNAP-23/Syn4/VAMP2- driven fusion

The next lines start with results.

% inhibition (SNAP-23/Syn4/VAMP8) | % inhibition (SNAP-23/Syn4/VAMP2 [1]) | Compound | % inhibition (SNAP-23/Syn4/VAMP2 [2])
~ 60% |  | Oc1cc(O)c2cc(O)c(-c3cc(O)c(O)c(O)c3)[o+]c2c1 [DL, delphinidin] | 
75-90% | 75-90% | O=c1c(O)c(-c2cc(O)c(O)c(O)c2)oc2cc(O)cc(O)c12 [MR, myricetin] | 

Reference: paper PMC4831212 (The Biochemical journal, 2013)
